These are literature values, as cited in patent publication US10398709B2, “Compositions for the treatment of cataracts” (Catacore, Inc., priority 2015, dated 2019).

In series [1] the test system is preformed protein aggregates (mutant crystallins). The note with it: both in vitro and in cell-transfection experiments.
Series [2] relates to dissected rabbit cataractous lenses. As to conditions: dissected rabbit cataractous lenses in vitro.
Series [3] has as its system cataract. The note with it: in vivo in dogs.

For `CC(C)=CCC[C@@H](C)[C@H]1CC[C@@]2(C)C3=C(CC[C@]12C)[C@@]1(C)CC[C@H](O)C(C)(C)[C@@H]1CC3` [lanosterol, 3β-hydroxy-8,24-lanostadiene], in series [1], the preformed protein aggregates result is “significantly decreased”. In addition, the “cataract severity and transparency” value in series [2] was “reduce cataract severity and increase transparency”. Moreover, in series [3], the cataract severity entry was “reduce cataract severity”.
For `CC(C)CCC[C@@H](C)[C@H]1CC[C@H]2[C@@H]3CC=C4C[C@@H](O)CC[C@]4(C)[C@H]3CC[C@]12C` [cholesterol], the preformed protein aggregates entry in series [1] is “not”.
